Our source for the EC50 values is article PMC3644566 (Journal of chemical information and modeling, 2013).

In test [1] the test system is P. falciparum 3D7 strain. In words: P. falciparum growth inhibition assay. To be noted: Plasmodium falciparum, 3D7, 72 h, read-out: consensus EC50. Type of test: cell-based.
The test system of test [2] is P. falciparum 3D7 or K1 strains. In words: P. falciparum growth inhibition assays of VS hits. Type of test: cell-based, Plasmodium falciparum. To be noted: against either 3D7 or K1 strains, most potent VS hit.

As usually defined, the EC50 is the concentration needed to bring the measured effect to its halfway point. With `OC(c1cc(C(F)(F)F)nc2c(C(F)(F)F)cccc12)C1CCCCN1` (stereo not drawn) [mefloquine], the EC50 in test [1] was 39.8 nM.
Turning to `CCN(CC)CCCC(C)Nc1ccnc2cc(Cl)ccc12` (stereo not drawn) [chloroquine], the EC50 in test [1] worked out at 26.8 nM.
`C=CC1CN2CCC1CC2C(OC(=O)C1CC1)c1ccnc2ccccc12` (stereo not drawn) [SJ000565000] returned an EC50 in test [2] of 95.6 nM.
